Measurements: US20240207208A1, “Treatments for Diabetes Mellitus and Obesity” (The Board of Trustees of the Leland Stanford Junior …, priority 2011, published 2024)

Experiments:
[1] = Oral glucose tolerance test (OGTT) after local RTX treatment of the intestine; assay type: in vivo, Sprague-Dawley rats
Source text: (§1) Adult male Sprague-Dawley rats (Harlan, Indianapolis, IN) weighing 280-350 g were used in all the experiments. The animal protocol was approved by the Institutional Animal Care and Use Committee of the Stanford University Medical Center.
(§2) Rats were randomly divided into six groups: 1, vehicle solution treated on the surface of duodenum (n=4); 2, RTX solution treated on the surface of duodenum (n=4); 3, vehicle solution treated on the surface of ileum (1 rat) or colon (1 rat) (n=2); 4, RTX solution treated on the surface of ileum (2 rats) or colon (1 rat) (n=3); 5. Vehicle solution infuse into duodenum (n=2); 6. RTX solution infuse into duodenum (n=3).
Rats were fasted overnight prior to surgery having free access to water. Under 2% isoflurane-induced anesthesia, the abdomen was opened through a midline incision for the duodenum treatment and lower line for ileum or colon treatment. These intestines were exposed and protected with warm saline sponges around the intestine. Procedure 1: RTX application on the surface of intestine: The cotton applicator with RTX((0.32 mM) or vehicle solution were gently applied topically to the outer surface of entire duodenum (about 10 cm from the beginning of the duodenum) for 5 min. Same treatment in ileum and colon groups were applied on about 10 cm long of distal ileum and colon. Procedure 2: RTX or vehicle infused into duodenum: Two atraumatic clamps used to block on beginning and distal of duodenum. 0.8 ml of 0.32 mM RTX or vehicle was infused into duodenum through a glass syringe with a 27 gauge needle. After 30 min the RTX or vehicle solution were withdrawn and the clamps were released. After treatment, the abdominal incisions were closed. […]
Post RTX treatment 1st, 3rd and 7th week all the rats were performed the OGTT. After 17 hours overnight fasting, blood glucose was measured in conscious rats by tail-stick, using a glucose meter (Bayer Healthcare LLC, Mishawaka, IN). OGTT was measured before (baseline) and each 15 minutes for 2 hours after oral gavage glucose (1 g/kg body weight). […]

[2] = Body weight change monitoring after local RTX treatment of the intestine; assay type: in vivo, Sprague-Dawley rats; design: body weight: unit not given here; conditions: for body weight: mean±s.e.
Source text: as §1, §2
Rats were fasted overnight prior to surgery having free access to water. Under 2% isoflurane-induced anesthesia, the abdomen was opened through a midline incision for the duodenum treatment and lower line for ileum or colon treatment. These intestines were exposed and protected with warm saline sponges around the intestine. Procedure 1: RTX application on the surface of intestine: The cotton applicator with RTX((0.32 mM) or vehicle solution were gently applied topically to the outer surface of entire duodenum (about 10 cm from the beginning of the duodenum) for 5 min. Same treatment in ileum and colon groups were applied on about 10 cm long of distal ileum and colon. Procedure 2: RTX or vehicle infused into duodenum: Two atraumatic clamps used to block on beginning and distal of duodenum. 0.8 ml of 0.32 mM RTX or vehicle was infused into duodenum through a glass syringe with a 27 gauge needle. After 30 min the RTX or vehicle solution were withdrawn and the clamps were released. After treatment, the abdominal incisions were closed.
RTX solution: RTX stock solution: 1 mg RTX+10% ethanol+10% Tween-80 in saline to make 1 μg RTX/μl in stock solution. RTX work solution (0.32 mM): stock RTX solution (0.2 ml)+Saline (0.8 ml); Vehicle (like stock solution without RTX)
The body weight of rats was measured before RTX treatment and each blood glucose testing day.
Data are presented as means±s.e. Data were compared using Student's t-test. Differences were considered significant at <0.05.

C=C(C)[C@]12C[C@@H](C)[C@@]34O[C@](Cc5ccccc5)(O[C@@H]1[C@@H]3C=C(COC(=O)Cc1ccc(O)c(OC)c1)C[C@]1(O)C(=O)C(C)=C[C@@H]41)O2 [RTX, Resiniferatoxin]
glucose tolerance compared with vehicle group (OGTT) ([1]; 0.8 ml of 0.32 mM RTX infused into duodenum, 30 min, 2 hours testing time, all testing days): not significantly different
glucose tolerance compared with vehicle group (OGTT) ([1]; RTX 0.32 mM topically on the surface of duodenum, 5 min, 30 and 45-minute peak levels, 1st, 3rd and 7th week post treatment, P<0.05): better glucose tolerance
glucose tolerance compared with vehicle group (OGTT) ([1]; RTX 0.32 mM topically on the surface of ileum or colon, 2 hours testing time, all testing days): not significantly different
body weight ([2]; RTX infused into duodenum, 1st week post treatment): 102.4±3.0
body weight ([2]; RTX infused into duodenum, 3rd week post treatment): 123.1±1.6
body weight ([2]; RTX infused into duodenum, 7th week post treatment): 136.3±2.5
body weight compared with vehicle group ([2]; RTX infused into duodenum, all measurement days): not significantly different
body weight ([2]; RTX on the surface of duodenum, 1st week post treatment, P<0.05 vs vehicle and vs RTX infusion): 92.0±1.0
body weight compared with vehicle group ([2]; RTX on the surface of duodenum, 3rd and 7th week post treatment): not significantly different
body weight ([2]; RTX on the surface of duodenum, 3rd week post treatment, P<0.05 vs RTX infusion): 110.5±2.6
body weight ([2]; RTX on the surface of duodenum, 7th week post treatment, P<0.05 vs RTX infusion): 118.9±0.9
body weight compared with vehicle group ([2]; RTX on the surface of ileum or colon, all measurement days): not significantly different
